From PubChem BioAssay AID248 (DTP/NCI, 2004)
Several values for one entry are separate records, joined by “and”; a condition that tells them apart may be missing. Equal entries are not always repeated. Inconclusive results and toxic doses are left out. Cut-off read from the data, not from the text of the source: active = T/C of 150% or more; inactive = T/C below 125%.

Test system: L1210 leukemia ip in BDF1 mice, survival T/C
Test: NCI In Vivo Anticancer Drug Screen. Data for tumor model L1210 Leukemia (intraperitoneal) in B6D2F1 (BDF1) mice
Conditions: endpoint: mean survival time, higher = longer survival
In short: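 In this screen, tumor-bearing mice given compound are compared to those given vehicle, and their survival values are reported as a treated-to-control quotient.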

[1] = dose: 100.0 mg/kg/injection, schedule: Q04DX002 (ip), vehicle: saline
[2] = dose: 200.0 mg/kg/injection, schedule: Q04DX002 (ip), vehicle: saline
[3] = dose: 100.0 mg/kg/injection, schedule: Q04DX003 (ip), vehicle: saline with Tween-80
[4] = dose: 200.0 mg/kg/injection, schedule: Q04DX003 (ip), vehicle: saline with Tween-80
[5] = dose: 400.0 mg/kg/injection, schedule: Q04DX003 (ip), vehicle: saline with Tween-80
[6] = dose: 100.0 mg/kg/injection, schedule: Q01DX009 (ip), vehicle: saline with Tween-80
[7] = dose: 200.0 mg/kg/injection, schedule: Q01DX009 (ip), vehicle: saline with Tween-80
[8] = dose: 400.0 mg/kg/injection, schedule: Q01DX009 (ip), vehicle: saline with Tween-80
[9] = dose: 400.0 mg/kg/injection, schedule: Q04DX002 (ip), vehicle: saline
[10] = dose: 100.0 mg/kg/injection, schedule: Q01DX009 (ip), vehicle: Klucel (hydroxypropylcellulose) (HPC)
[11] = dose: 100.0 mg/kg/injection, schedule: Q04DX003 (ip), vehicle: Klucel (hydroxypropylcellulose) (HPC)
[12] = dose: 200.0 mg/kg/injection, schedule: Q01DX009 (ip), vehicle: Klucel (hydroxypropylcellulose) (HPC)
[13] = dose: 200.0 mg/kg/injection, schedule: Q04DX003 (ip), vehicle: Klucel (hydroxypropylcellulose) (HPC)
[14] = dose: 400.0 mg/kg/injection, schedule: Q01DX009 (ip), vehicle: Klucel (hydroxypropylcellulose) (HPC)
[15] = dose: 400.0 mg/kg/injection, schedule: Q04DX003 (ip), vehicle: Klucel (hydroxypropylcellulose) (HPC)
[16] = dose: 100.0 mg/kg/injection, schedule: Q01DX001 (ip), vehicle: saline
[17] = dose: 200.0 mg/kg/injection, schedule: Q01DX001 (ip), vehicle: saline
[18] = dose: 400.0 mg/kg/injection, schedule: Q01DX001 (ip), vehicle: saline

Measured: T/C

CNCC1C=CCCC1 (stereo unspecified)
inactive: [1] 93 % of control | [2] 100 % of control

N#CCC(=O)NCc1ccncc1
inactive: dose: 100.0 mg/kg/injection, schedule: Q01DX001 (ip), vehicle: carboxymethylcellulose (CMC) 95 % of control | dose: 100.0 mg/kg/injection, schedule: Q04DX003 (ip), vehicle: carboxymethylcellulose (CMC) 95 % of control | dose: 200.0 mg/kg/injection, schedule: Q01DX001 (ip), vehicle: carboxymethylcellulose (CMC) 106 % of control | dose: 200.0 mg/kg/injection, schedule: Q04DX003 (ip), vehicle: carboxymethylcellulose (CMC) 96 % of control | dose: 400.0 mg/kg/injection, schedule: Q01DX001 (ip), vehicle: carboxymethylcellulose (CMC) 108 % of control | dose: 400.0 mg/kg/injection, schedule: Q04DX003 (ip), vehicle: carboxymethylcellulose (CMC) 91 % of control

COc1ccccc1NC(N)=O
inactive: [3] 98 % of control | [4] 107 % of control | [5] 98 % of control

COC1(OC)C2CCC1(Cl)C(Cl)=C2Cl (stereo unspecified)
inactive: [6] 95 % of control | [3] 93 % of control | [7] 92 % of control | [4] 91 % of control | [8] 89 % of control

COc1ccc2c(c1)CCC1C2CCC2C(O)CCC(=O)C21 (stereo unspecified)
inactive: dose: 50.0 mg/kg/injection, schedule: Q01DX001 (ip), vehicle: Klucel (hydroxypropylcellulose) (HPC) 102 % of control | dose: 100.0 mg/kg/injection, schedule: Q01DX001 (ip), vehicle: Klucel (hydroxypropylcellulose) (HPC) 102 % of control | dose: 200.0 mg/kg/injection, schedule: Q01DX001 (ip), vehicle: Klucel (hydroxypropylcellulose) (HPC) 98 % of control

c1ccc(/C(N=NC(c2ccccc2)(c2ccccc2)c2ccccc2)=C(/N=NC(c2ccccc2)(c2ccccc2)c2ccccc2)c2ccccc2)cc1
inactive: dose: 100.0 mg/kg/injection, schedule: Q01DX009 (ip), vehicle: saline sonified 94 % of control | dose: 200.0 mg/kg/injection, schedule: Q01DX009 (ip), vehicle: saline sonified 97 % of control | dose: 400.0 mg/kg/injection, schedule: Q01DX009 (ip), vehicle: saline sonified 94 % of control

CCOP(=O)(CN1CCCCC1)OCC
inactive: [1] 104 % of control | [2] 96 % of control | [9] 104 % of control

O=C(NO)Nc1ccc([N+](=O)[O-])cc1
inactive: dose: 100.0 mg/kg/injection, schedule: Q01DX001 (ip), vehicle: saline with Tween-80 97 % of control | [6] 93 % of control | dose: 200.0 mg/kg/injection, schedule: Q01DX001 (ip), vehicle: saline with Tween-80 90 % of control | [7] 89 % of control | dose: 400.0 mg/kg/injection, schedule: Q01DX001 (ip), vehicle: saline with Tween-80 99 % of control | [8] 98 % of control

Cc1ccc(C(=O)CN(Cc2ccccc2)Cc2ccccc2)cc1
inactive: [10] 103 % of control | [11] 98 % of control | [12] 97 % of control | [13] 92 % of control | [14] 92 % of control | [15] 91 % of control

N#Cc1cn(C2OC(CO)C(O)C2O)c2ncnc([Se]Cc3ccc([N+](=O)[O-])cc3)c12 (stereo unspecified)
inactive: dose: 3.12 mg/kg/injection, schedule: Q01DX005 (ip), vehicle: saline 109 % of control | dose: 6.25 mg/kg/injection, schedule: Q01DX005 (ip), vehicle: saline 106 % of control | dose: 12.5 mg/kg/injection, schedule: Q01DX005 (ip), vehicle: saline 102 % of control

CNC1(c2ccccc2)C(=O)CC2CCC1C2 (stereo unspecified)
inactive: dose: 50.0 mg/kg/injection, schedule: Q04DX003 (ip), vehicle: saline 99 % of control | [16] 105 % of control | dose: 100.0 mg/kg/injection, schedule: Q04DX003 (ip), vehicle: saline 100 % of control | [17] 107 % of control

CCCCCCCCCCCCCCCC1=C(O)c2ccccc2C(=O)C1=O
inactive: [16] 112 % of control | [17] 101 % of control | [18] 103 % of control

O=C(O)c1ccc(=O)[nH]n1
inactive: dose: 100.0 mg/kg/injection, schedule: Q04DX002 (ip), vehicle: Klucel (hydroxypropylcellulose) (HPC) 115 % of control | dose: 200.0 mg/kg/injection, schedule: Q04DX002 (ip), vehicle: Klucel (hydroxypropylcellulose) (HPC) 93 % of control | dose: 400.0 mg/kg/injection, schedule: Q04DX002 (ip), vehicle: Klucel (hydroxypropylcellulose) (HPC) 89 % of control

CSC(=S)NNC(=O)c1ccc([N+](=O)[O-])cc1
inactive: dose: 6.25 mg/kg/injection, schedule: Q04DX003 (ip), vehicle: saline sonified 96 % of control | dose: 12.5 mg/kg/injection, schedule: Q04DX003 (ip), vehicle: saline sonified 98 % of control

CCN(CC)CCCNc1ncnc2c1C(c1ccccc1)c1ccccc1-2 (stereo unspecified)
inactive: dose: 5.0 mg/kg/injection, schedule: Q01DX001 (ip), vehicle: saline 98 % of control | dose: 10.0 mg/kg/injection, schedule: Q01DX001 (ip), vehicle: saline 96 % of control | dose: 20.0 mg/kg/injection, schedule: Q01DX001 (ip), vehicle: saline 93 % of control | dose: 40.0 mg/kg/injection, schedule: Q01DX001 (ip), vehicle: saline 93 % of control

Cc1c(NC(=O)OCc2ccccc2)no[n+]1[O-]
inactive: [1] 102 % of control | [2] 98 % of control | [9] 98 % of control

O=[N+]([O-])c1cc2c3c(cccc3c1)CC2
inactive: [16] 95 % of control and 97 % of control | [1] 105 % of control | [17] 100 % of control | [2] 100 % of control | [18] 100 % of control and 110 % of control | [9] 101 % of control

Cc1cc(N(CCOS(C)(=O)=O)CCOS(C)(=O)=O)ccc1C=Nc1ccc(-c2csc(-c3ccc(Br)cc3)n2)cc1
active: [11] 150 % of control
inactive: dose: 100.0 mg/kg/injection, schedule: Q01DX009 (ip), vehicle: saline 109 % of control | dose: 150.0 mg/kg/injection, schedule: Q01DX009 (ip), vehicle: saline 101 % of control | [13] 91 % of control

CCC(C)C(C#N)(CCN(CC)CC)c1ccccc1 (stereo unspecified)
inactive: dose: 50.0 mg/kg/injection, schedule: Q01DX009 (ip), vehicle: Klucel (hydroxypropylcellulose) (HPC) 104 % of control | [10] 100 % of control | [11] 111 % of control | [13] 103 % of control

CCOC(OCC)C(=O)C(C#N)c1ccc(C#N)cc1 (stereo unspecified)
inactive: dose: 3.12 mg/kg/injection, schedule: Q01DX009 (ip), vehicle: DMSO 90 % of control | dose: 6.25 mg/kg/injection, schedule: Q01DX009 (ip), vehicle: DMSO 88 % of control | dose: 12.5 mg/kg/injection, schedule: Q01DX009 (ip), vehicle: DMSO 92 % of control and 88 % of control

CC(SC1=NCCN1)C(=O)O (stereo unspecified)
inactive: [16] 98 % of control | [17] 94 % of control | [18] 98 % of control

O=S(=O)(Nc1ccc(NS(=O)(=O)c2ccccc2)nc1)c1ccccc1
inactive: [10] 96 % of control | [11] 101 % of control | [12] 98 % of control | [13] 97 % of control | [14] 101 % of control | [15] 101 % of control

Cc1ccccc1NC(=O)N(C)N
inactive: dose: 75.0 mg/kg/injection, schedule: Q01DX001 (ip), vehicle: carboxymethylcellulose (CMC) 93 % of control

CCN=C(NC(=S)Nc1ccc(Cl)cc1)SCC
inactive: dose: 100.0 mg/kg/injection, schedule: Q04DX002 (ip), vehicle: saline with Tween-80 98 % of control | dose: 200.0 mg/kg/injection, schedule: Q04DX002 (ip), vehicle: saline with Tween-80 98 % of control | dose: 400.0 mg/kg/injection, schedule: Q04DX002 (ip), vehicle: saline with Tween-80 95 % of control

CCN(CC)c1ccc(N=Nc2cc(Cl)ccc2Cl)c(NC(=O)CCC(=O)O)c1
inactive: [3] 96 % of control | [4] 96 % of control | [5] 95 % of control

Cc1cc2c(cc1C)C1(c3ccccc3)OC2(c2ccccc2)C(C(=O)c2ccccc2)C1C(=O)c1ccccc1 (stereo unspecified)
inactive: dose: 50.0 mg/kg/injection, schedule: Q01DX009 (ip), vehicle: saline with Tween-80 91 % of control | [6] 91 % of control | [7] 91 % of control

O=C(/C=C(\S)c1ccccc1)c1ccccc1
inactive: dose: 50.0 mg/kg/injection, schedule: Q01DX001 (ip), vehicle: saline 101 % of control | [16] 104 % of control | [17] 98 % of control | [18] 101 % of control

C[N+](C)(C)CCOC(=O)CCC(=O)OCC[N+](C)(C)C
inactive: dose: 1.56 mg/kg/injection, schedule: Q01DX009 (ip), vehicle: saline 94 % of control | dose: 3.12 mg/kg/injection, schedule: Q01DX009 (ip), vehicle: saline 94 % of control
